This is an account of results in patent US20250154169A1, “COMPOUNDS AND METHODS FOR MODULATING SPLICING” (REMIX THERAPEUTICS INC., priority 2021, published 2025).

The structures appear in SMILES notation. pIC50: −log10 of the molar value. Like-named read-outs stand apart in the source and are kept apart here.

For one assay, the system named is HTT mRNA. The experiment in a line: Splicing RT-qPCR assay, HTT canonical (CJ) and alternative (AJ) junction mRNA. To be noted: Homo sapiens, A673 or K562 cells, 24 hours compound treatment; for pIC50: 24 h, read-out: HTT CJ (IC50, decrease in canonical junction mRNA); for AC50: read-out: HTT AJ (AC50, increase in alternative junction mRNA). Type of assay: cell-based, human. On the procedure: (§1) Compounds described herein were used to modulate RNA transcript abundance in cells. The expression of a target mRNA was measured by detecting the formation of an exon-exon junction in the canonical transcript (CJ). A compound mediated exon-inclusion event was detected by observing an increase in formation of a new junction with an alternative exon (AJ). Real-time qPCR assays were used to detect these splicing switches and interrogate the potency of various compounds towards different target genes. A high-throughput real time quantitative PCR (RT-qPCR) assay was developed to measure these two isoforms of the mRNA (CJ and AJ) for exemplary genes, such as HTT, SMN2, and MYB, together with a control housekeeping gene, GAPDH or GUSB or PPIA, used for normalization. Briefly, the A673 or K562 cell line was treated with various compounds described herein (e.g., compounds of Formula (I)). After treatment, the levels of the HTT, MYB, or SMN2 mRNA targets were determined from each sample of cell lysate by cDNA synthesis followed by qPCR.
(§2) • Cells-to-CT 1-step kit: ThermoFisher A25602, Cells-to-CT lysis reagent: ThermoFisher 4391851C, TaqMan™ Fast Virus 1-Step Master Mix: ThermoFisher 4444436 • GAPDH: VIC-PL, ThermoFisher 4326317E (Assay: Hs99999905_m1)—used for K562/suspension cell lines • GUSB: VIC-PL, ThermoFisher 4326320E (Assay: Hs99999908_m1)—used for K562/suspension cell lines • PPIA: VIC-PL, ThermoFisher 4326316E (Assay: Hs99999904_m1)—used for A673/adherent cell lines
(§3) The A673 cell line was cultured in DMEM with 10% FBS. Cells were diluted with full growth media and plated in a 96-well plate (15,000 cells in 100 ul media per well). The plate was incubated at 37° C. with 5% CO2 for 24 hours to allow cells to adhere. An 11-point 3-fold serial dilution of the compounds was made in DMSO then diluted in media in an intermediate plate. Compounds were transferred from the intermediate plate to the cell plate with the top dose at a final concentration of 10 uM in the well. Final DMSO concentration was kept at or below 0.25%. The cell plate was returned to the incubator at 37° C. with 5% CO2 for an additional 24 hours.
(§4) The K562 cell line was cultured in IMDM with 10% FBS. For K562, cells were diluted with full growth media and plated in either a 96-well plate (50,000 cells in 50 uL media per well) or a 384-well plate (8,000-40,000 cells in 45 uL media per well). An 11-point 3-fold serial dilution of the compounds were made in DMSO then diluted in media in an intermediate plate. Compound was transferred from the intermediate plate to the cell plate with the top dose at a final concentration of 10 uM in the well. Final DMSO concentration was kept at or below 0.25%. Final volume was 100 uL for 96-well plate and 50 uL for 384-well plate. The cell plate was then placed in an incubator at 37° C. with 5% CO2 for 24 hours.
(§5) The cells were then gently washed with 50 uL-100 uL cold PBS before proceeding to addition of lysis buffer. 30 uL-50 uL of room temperature lysis buffer with DNAse I (and optionally RNAsin) was added to each well. Cells were shaken/mixed thoroughly at room temperature for 5-10 minutes for lysis to take place and then 3 uL-5 uL of room temperature stop solution was added and wells were shaken/mixed again. After 2-5 minutes, the cell lysate plate was transferred to ice for RT-qPCR reaction setup. The lysates could also be frozen at −80° C. for later use.
(§6) In some cases, a direct lysis buffer was used. An appropriate volume of 3× lysis buffer (10 mM Tris, 150 mM NaCl, 1.5%-2.5% Igepal and 0.1-1 U/uL RNAsin, pH 7.4) was directly added to either K562 or A673 cells in media and mixed by pipetting 3 times. The plates were then incubated at room temperature with shaking/rocking for 20-50 minutes to allow for lysis to take place. After this time, the cell lysate plate was transferred to ice to set up for the RT-qPCR reactions. The lysates could also be frozen at −80° C. for later use. […]

A further assay deals with MYB mRNA. The assay is described as follows: Splicing RT-qPCR assay, MYB canonical (CJ) and alternative (AJ) junction mRNA. Type of assay: cell-based, human. The settings on record: A673 or K562 cells, 24 hours compound treatment, RT-qPCR; for AC50: read-out: MYB AJ (AC50, increase in alternative junction mRNA); for pIC50: read-out: MYB CJ (IC50, decrease in canonical junction mRNA). On the procedure: as §1, §2, §3, §4, §5, §6
(Real-time PCR tracks product formation cycle by cycle.)

As usually defined, the pIC50 is −log10 of the IC50, conventionally taken in molar units. Broadly, the AC50 is the midpoint of the concentration-response curve, whichever way the signal moves. In the case of `CCNC1CCN(c2ccc(C(=O)Nc3cc(F)c4nc(C)cn4c3)c3nn(CC)cc23)C1` (stereo in doubt) [Compound 399, (S)-2-ethyl-4-(3-(ethylamino)pyrrolidin-1-yl)-N-(8-fluoro-2-methylimidazo[1,2-a]pyridin-6-yl)-2H-indazole-7-carboxamide], in the assay on HTT mRNA, the pIC50 was under 5.00 and the AC50 was over 10000 nM. Besides, in the assay on MYB mRNA (Homo sapiens, 24 h), the AC50 was 100 to 1000 nM and the negative logarithm of the IC50 (pIC50) is 6.00 to 7.00.

As for `CCNC1CCN(c2ccc(C(=O)Nc3cc(F)c4nc(C)cn4c3)c3nn(CC)cc23)C1` (stereo in doubt) [Compound 400, (R)-2-ethyl-4-(3-(ethylamino)pyrrolidin-1-yl)-N-(8-fluoro-2-methylimidazo[1,2-a]pyridin-6-yl)-2H-indazole-7-carboxamide], in the assay with HTT mRNA, the negative logarithm of the IC50 (pIC50) was under 5.00 and the AC50 was over 10000 nM. Further, in the assay with MYB mRNA (Homo sapiens, 24 h), the half-maximal activity concentration (AC50) was under 100 nM and the negative logarithm of the IC50 (pIC50) was over 7.00.

In the case of `Cc1cn2cc(NC(=O)c3ccc(N4CCc5[nH]ccc5C4)c4cn(C)nc34)cc(F)c2n1` [Compound 390, N-{8-fluoro-2-methylimidazo[1,2-a]pyridin-6-yl}-2-methyl-4-{1H,4H,6H,7H-pyrrolo[3,2-c]pyridin-5-yl}indazole-7-carboxamide], the pIC50 in the assay with HTT mRNA is under 5.00; in the assay with MYB mRNA (Homo sapiens, 24 h), under 5.00. Besides, the AC50 in the assay on HTT mRNA is over 10000 nM; in the assay with MYB mRNA (Homo sapiens, 24 h), over 10000 nM.

With `Cc1cn2cc(NC(=O)c3ccc(N4CCNCC4)c4cn(C5CCC5)nc34)cc(F)c2n1` [Compound 391, 2-cyclobutyl-N-{8-fluoro-2-methylimidazo[1,2-a]pyridin-6-yl}-4-(piperazin-1-yl) indazole-7-carboxamide], in the assay with HTT mRNA, the pIC50 was under 5.00 and the AC50 lay in the range of 1000 to 10000 nM. For the same molecule, in the assay on MYB mRNA (Homo sapiens, 24 h), the AC50 lay within 100 to 1000 nM and the pIC50 is over 7.00.

On to `C=CCn1cc2c(N3CCNCC3)ccc(C(=O)Nc3cc(F)c4nc(C)cn4c3)c2n1` [Compound 392, N-{8-fluoro-2-methylimidazo[1,2-a]pyridin-6-yl}-4-(piperazin-1-yl)-2-(prop-2-en-1-yl) indazole-7-carboxamide], for which, in the assay on HTT mRNA, the negative logarithm of the IC50 (pIC50) was 5.00 to 6.00 and the half-maximal activity concentration (AC50) is 1000 to 10000 nM. Besides, in the assay on MYB mRNA (Homo sapiens, 24 h), the AC50 is under 100 nM and the pIC50 was over 7.00.

Take `CCn1cc2c(N3CC[C@@H](NC)C3)ccc(C(=O)Nc3cc(F)c4nc(C)cn4c3)c2n1` [Compound 393, (R)-2-ethyl-N-(8-fluoro-2-methylimidazo[1,2-a]pyridin-6-yl)-4-(3-(methylamino)pyrrolidin-1-yl)-2H-indazole-7-carboxamide]: the values for the negative-log IC50 (pIC50) with HTT mRNA and in the assay on MYB mRNA were under 5.00 and 6.00 to 7.00, respectively. The AC50 in the assay with HTT mRNA was over 10000 nM; in the assay with MYB mRNA, 100 to 1000 nM.

With `CCn1cc2c(N3CCC4(CCN4)CC3)ccc(C(=O)Nc3cc(F)c4nc(C)cn4c3)c2n1` [Compound 394, 4-{1,7-diazaspiro[3.5]nonan-7-yl}-2-ethyl-N-{8-fluoro-2-methylimidazo[1,2-a]pyridin-6-yl}indazole-7-carboxamide], in the assay with HTT mRNA, the pIC50 is 5.00 to 6.00 and the AC50 was in the range of 1000 to 10000 nM. In the assay with MYB mRNA (Homo sapiens, 24 h), the AC50 fell in the range of 100 to 1000 nM and the negative logarithm of the IC50 (pIC50) was 6.00 to 7.00.

Turning to `CCn1cc2c(N3CCC(N(C)C)CC3)ccc(C(=O)Nc3cc(F)c4nc(C)cn4c3)c2n1` [Compound 395, 4-[4-(dimethylamino)piperidin-1-yl]-2-ethyl-N-{8-fluoro-2-methylimidazo[1,2-a]pyridin-6-yl}indazole-7-carboxamide], in the assay with HTT mRNA, the pIC50 is 5.00 to 6.00 and the AC50 fell in the range of 1000 to 10000 nM. In the assay with MYB mRNA (Homo sapiens, 24 h), the AC50 is under 100 nM and the pIC50 is over 7.00.

For `CCNC1CCN(c2ccc(C(=O)Nc3cc(F)c4nc(C)cn4c3)c3nn(CC)cc23)C1` (stereo not shown) [Compound 396, 2-ethyl-4-[3-(ethylamino)pyrrolidin-1-yl]-N-{8-fluoro-2-methylimidazo[1,2-a]pyridin-6-yl}indazole-7-carboxamide], in the assay with HTT mRNA, the pIC50 was under 5.00 and the AC50 was over 10000 nM. In the assay with MYB mRNA (Homo sapiens, 24 h), the AC50 was under 100 nM and the pIC50 is 6.00 to 7.00.

For the molecule `Cc1cn2cc(NC(=O)c3ccc(N4CCC(N)(CF)CC4)c4cn(C)nc34)cc(F)c2n1` [Compound 397], in the assay with HTT mRNA, the negative-log IC50 (pIC50) was 5.00 to 6.00 and the AC50 lay within 1000 to 10000 nM. For the same molecule, in the assay on MYB mRNA (Homo sapiens, 24 h), the AC50 is 100 to 1000 nM and the pIC50 was 6.00 to 7.00.

Consider `CCn1cc2c(N3CCC(NC4CC4)C3)ccc(C(=O)Nc3cc(F)c4nc(C)cn4c3)c2n1` (stereo not shown) [Compound 398, 4-[3-(cyclopropylamino)pyrrolidin-1-yl]-2-ethyl-N-{8-fluoro-2-methylimidazo[1,2-a]pyridin-6-yl}indazole-7-carboxamide], for which, in the assay with HTT mRNA, the pIC50 is under 5.00 and the AC50 was over 10000 nM. Besides, in the assay with MYB mRNA (Homo sapiens, 24 h), the concentration at half-maximal activity (AC50) fell in the range of 100 to 1000 nM and the negative logarithm of the IC50 (pIC50) is 6.00 to 7.00.

`CCn1cc2c(N3CCC4(CC3)CCN4C)ccc(C(=O)Nc3cc(F)c4nc(C)cn4c3)c2n1` [Compound 401, 2-ethyl-N-(8-fluoro-2-methylimidazo[1,2-a]pyridin-6-yl)-4-(1-methyl-1,7-diazaspiro[3.5]nonan-7-yl)-2H-indazole-7-carboxamide 2,2,2-trifluoroacetate]: in the assay with HTT mRNA, the negative logarithm of the IC50 (pIC50) is 6.00 to 7.00 and the AC50 was in the range of 100 to 1000 nM. In the assay on MYB mRNA (Homo sapiens, 24 h), the concentration at half-maximal activity (AC50) was under 100 nM and the pIC50 is over 7.00.

As for `Cc1cn2cc(NC(=O)c3ccc(N4CCC(N)CC4)c4cn(C)nc34)cc(F)c2n1` [Compound 402, 4-(4-aminopiperidin-1-yl)-N-{8-fluoro-2-methylimidazo[1,2-a]pyridin-6-yl}-2-methylindazole-7-carboxamide], the negative-log IC50 (pIC50) with HTT mRNA was 6.00 to 7.00; in the assay on MYB mRNA (Homo sapiens, 24 h) it was over 7.00. Further, the concentration at half-maximal activity (AC50) was 100 to 1000 nM in the assay on HTT mRNA and under 100 nM in the assay with MYB mRNA (Homo sapiens, 24 h).

For the molecule `CCn1cc2c(N3CCNC(CO)C3)ccc(C(=O)Nc3cc(F)c4nc(C)cn4c3)c2n1` (stereo not shown) [Compound 403, 2-ethyl-N-{8-fluoro-2-methylimidazo[1,2-a]pyridin-6-yl}-4-[3-(hydroxymethyl)piperazin-1-yl]indazole-7-carboxamide], in the assay with HTT mRNA, the negative logarithm of the IC50 (pIC50) is 5.00 to 6.00 and the concentration at half-maximal activity (AC50) lay in the range of 1000 to 10000 nM. In the assay on MYB mRNA (Homo sapiens, 24 h), the concentration at half-maximal activity (AC50) is 100 to 1000 nM and the pIC50 is 6.00 to 7.00.

As to `Cc1nc2c(C)nc(NC(=O)c3ccc(N4CCNCC4)c4cn(C)nc34)cc2o1` [Compound 405, N-{2,4-dimethyl-[1,3]oxazolo[4,5-c]pyridin-6-yl}-2-methyl-4-(piperazin-1-yl) indazole-7-carboxamide], in the assay with HTT mRNA, the pIC50 is 5.00 to 6.00 and the AC50 was 1000 to 10000 nM. Also, in the assay on MYB mRNA (Homo sapiens, 24 h), the AC50 was 100 to 1000 nM and the pIC50 was over 7.00.

With `Cn1cc2c(N3CCNCC3)ccc(C(=O)Nc3cc(F)c4nc(CO)oc4c3)c2n1` [Compound 406, N-[4-fluoro-2-(hydroxymethyl)-1,3-benzoxazol-6-yl]-2-methyl-4-(piperazin-1-yl) indazole-7-carboxamide], the negative logarithm of the IC50 (pIC50) in the assay with HTT mRNA is 6.00 to 7.00; in the assay with MYB mRNA (Homo sapiens, 24 h), over 7.00. Also, the AC50 in the assay on HTT mRNA was 100 to 1000 nM; with MYB mRNA (Homo sapiens, 24 h) it was under 100 nM.
